Data taken from patent publication US11465974B2, “Crystalline polymorphs of Pracinostat and Pracinostat salts” (ASSIA CHEMICAL INDUSTRIES LTD., priority 2017, dated 2022).
Where a name gives a salt, the structure may show the parent alone.

Key:
Format in all cases: physicochemical
[1] = Physical pressure stability test; conditions: 3 ton pressure for 1 minute at room temperature
Protocol: Physical pressure stability test: The tested sample was exposed to 3 ton pressure for 1 minute at room temperature.

[2] = Polymorphic stability at relative humidity 0% to 100%; conditions: RH of from 0% to 100%, room temperature
[3] = Hygroscopicity (absorption of water, determined for example by TGA)
Description: As used herein the term non-hygroscopic in relation to crystalline forms of Pracinostat refers to less than 0.2% (w/w) absorption of water, by the crystalline form of Pracinostat, as determined for example by TGA. Water can be for example atmospheric water.

[4] = Grinding stability test; conditions: ground by mortar and pestle for 1 minute at room temperature, without solvent or with one drop of ethanol, isopropyl alcohol or water
Protocol: Grinding stability test: The tested sample was grinded by moltal&pestle for 1 minute at room temperature either without a solvent or with one drop of solvent from the following solvents: Ethanol, Isopropyl alcohol and water.

[5] = Thermal stability test; conditions: heated to 100° C. for 30 minutes at open dish
Protocol: Thermal stability test: The tested sample was heated to temperature of 100° C. for 30 minutes at open dish.

SMILES	stability under physical pressure [1]	period of polymorphic stability [2]	absorption of water (hygroscopicity) [3]	stability under grinding [4]	stability under thermal test [5]
CCCCc1nc2cc(/C=C/C(=O)NO)ccc2n1CCN(CC)CC [Pracinostat sulfate Form S1]	stable	at least 7 days	less than 2 % (w/w)	stable	stable
CCCCc1nc2cc(/C=C/C(=O)NO)ccc2n1CCN(CC)CC [Form P7, (E)-3-[2-Butyl-1-[2-(diethylamino)ethyl]-1H-benzo[d]imidazol-5-yl]-N-hydroxy-acrylamide]	stable	at least 7 days	less than 0.2 % (w/w)	stable	stable
CCCCc1nc2cc(/C=C/C(=O)NO)ccc2n1CCN(CC)CC [Form P3, (E)-3-[2-Butyl-1-[2-(diethylamino)ethyl]-1H-benzo[d]imidazol-5-yl]-N-hydroxy-acrylamide]	stable	at least 7 days	less than 0.2 % (w/w)	stable	stable
